Measured values: PubChem BioAssay AID296 (DTP/NCI, 2004)
Where “and” joins values, the source holds several entries; their conditions need not be identical. Identical values can stand only once. Inconclusive results are not listed.

Tested on: MX-1 breast xenograft, nude mice, tumor weight T/C
Experiment: NCI In Vivo Anticancer Drug Screen. Data for tumor model Human Mammary Carcinoma MX-1 Xenograft (intrarenal inoculation) in NU/NU Swiss (nude) mice
Conditions: endpoint: mean tumor weight change, higher = larger tumour
In short: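 Mice carrying the implanted tumor receive either test agent or vehicle. Tumor size or survival is then recorded for both groups. Results are stated as the treated-to-control quotient.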

[1] = dose: 300.0 mg/kg/injection, schedule: Q04DX003 (sc), vehicle: saline
[2] = dose: 600.0 mg/kg/injection, schedule: Q04DX003 (sc), vehicle: saline
[3] = dose: 1200.0 mg/kg/injection, schedule: Q04DX003 (sc), vehicle: saline
[4] = dose: 2400.0 mg/kg/injection, schedule: Q04DX003 (sc), vehicle: saline
[5] = dose: 200.0 mg/kg/injection, schedule: Q01DX010 (sc), vehicle: water
[6] = dose: 0.5 mg/kg/injection, schedule: Q01DX010 (sc), vehicle: saline
[7] = dose: 1.0 mg/kg/injection, schedule: Q01DX010 (sc), vehicle: saline
[8] = dose: 2400.0 mg/kg/injection, schedule: Q04DX003 (sc), vehicle: Klucel (hydroxypropylcellulose) (HPC)
[9] = dose: 150.0 mg/kg/injection, schedule: Q04DX003 (sc), vehicle: saline
[10] = dose: 300.0 mg/kg/injection, schedule: Q04DX003 (sc), vehicle: saline with Tween-80
[11] = dose: 600.0 mg/kg/injection, schedule: Q04DX003 (sc), vehicle: saline with Tween-80
[12] = dose: 1200.0 mg/kg/injection, schedule: Q04DX003 (sc), vehicle: saline with Tween-80
[13] = dose: 2400.0 mg/kg/injection, schedule: Q04DX003 (sc), vehicle: saline with Tween-80

CC(=O)C1(O)Cc2c(O)c3c(c(O)c2C(OC2CC(N)C(O)C(C)O2)C1)C(=O)c1ccccc1C3=O (stereo not drawn)
T/C (dose: 0.5 mg/kg/injection, schedule: Q04DX003 (sc), vehicle: water): 104 % of control | T/C (dose: 1.0 mg/kg/injection, schedule: Q04DX003 (sc), vehicle: water): 100 % of control

OCC12COCN1COC2
T/C [1]: 80 % of control | T/C [2]: 102 % of control | T/C [3]: 109 % of control | T/C [4]: 122 % of control

O=C1NC(O)CCN1C1OC(CO)C(O)C1O (stereo not drawn)
T/C [5]: 111 % of control | T/C (dose: 400.0 mg/kg/injection, schedule: Q01DX010 (sc), vehicle: water): 112 % of control | T/C (dose: 800.0 mg/kg/injection, schedule: Q01DX010 (sc), vehicle: water): 79 % of control | T/C (dose: 1600.0 mg/kg/injection, schedule: Q01DX010 (sc), vehicle: water): 103 % of control

COc1cc([C@@H]2c3cc4c(c(O)c3C[C@H]3COC(=O)[C@@H]32)OCO4)cc(OC)c1O
T/C [6]: 121 % of control | T/C [7]: 114 % of control | T/C (dose: 2.0 mg/kg/injection, schedule: Q01DX010 (sc), vehicle: saline): 87 % of control | T/C (dose: 3.13 mg/kg/injection, schedule: Q01DX010 (sc), vehicle: saline): 104 % of control | T/C (dose: 4.0 mg/kg/injection, schedule: Q01DX010 (sc), vehicle: saline): 98 % of control | T/C (dose: 6.25 mg/kg/injection, schedule: Q01DX010 (sc), vehicle: saline): 34 % of control

Oc1c(Cl)cc(Cl)cc1C1N2CCCCC2C2c3cccn3-c3ccccc3N21 (stereo not drawn)
T/C (dose: 300.0 mg/kg/injection, schedule: Q04DX003 (sc), vehicle: Klucel (hydroxypropylcellulose) (HPC)): 105 % of control | T/C (dose: 600.0 mg/kg/injection, schedule: Q04DX003 (sc), vehicle: Klucel (hydroxypropylcellulose) (HPC)): 66 % of control | T/C (dose: 1200.0 mg/kg/injection, schedule: Q04DX003 (sc), vehicle: Klucel (hydroxypropylcellulose) (HPC)): 88 % of control | T/C [8]: 82 % of control

O=[n+]1c2ccccc2n([O-])c2ccccc21.[Cl][Ni][Cl]
T/C (dose: 75.0 mg/kg/injection, schedule: Q04DX003 (sc), vehicle: saline with Tween-80): 90 % of control | T/C (dose: 150.0 mg/kg/injection, schedule: Q04DX003 (sc), vehicle: saline with Tween-80): 53 % of control

CC[C@]1(O)C[C@H]2CN(CCc3c([nH]c4ccccc34)[C@@](C(=O)OC)(c3cc4c(cc3OC)N(C=O)[C@H]3[C@@](O)(C(=O)OC)[C@H](OC(C)=O)[C@]5(CC)C=CCN6CC[C@]43[C@@H]65)C2)C1
T/C [6]: -100 % of control and -81 % of control | T/C [7]: -99 % of control

Nc1ncnc2c1ncn2C1OC(COP(=O)(O)O)C(O)C1O (stereo not drawn)
T/C (dose: 100.0 mg/kg/injection, schedule: Q01DX010 (ip), vehicle: saline): 85 % of control | T/C (dose: 200.0 mg/kg/injection, schedule: Q01DX010 (ip), vehicle: saline): 90 % of control | T/C (dose: 333.33 mg/kg/injection, schedule: Q04DX003 (sc), vehicle: saline): 124 % of control | T/C (dose: 400.0 mg/kg/injection, schedule: Q01DX010 (ip), vehicle: saline): 51 % of control | T/C (dose: 666.65 mg/kg/injection, schedule: Q04DX003 (ip), vehicle: saline): 106 % of control | T/C (dose: 666.65 mg/kg/injection, schedule: Q04DX003 (sc), vehicle: saline): 115 % of control | T/C (dose: 800.0 mg/kg/injection, schedule: Q01DX010 (ip), vehicle: saline): 6 % of control | T/C (dose: 1333.3 mg/kg/injection, schedule: Q04DX003 (ip), vehicle: saline): 49 % of control | T/C (dose: 1333.3 mg/kg/injection, schedule: Q04DX003 (sc), vehicle: saline): 62 % of control | T/C (dose: 1600.0 mg/kg/injection, schedule: Q01DX010 (sc), vehicle: saline): -36 % of control | T/C (dose: 2666.6 mg/kg/injection, schedule: Q04DX003 (ip), vehicle: saline): 29 % of control | T/C (dose: 2666.6 mg/kg/injection, schedule: Q04DX003 (sc), vehicle: saline): 76 % of control

C=CCc1cn(C2CC(O)C(CO)O2)c(=O)[nH]c1=O (stereo not drawn)
T/C [1]: 121 % of control | T/C [2]: 114 % of control | T/C [3]: 93 % of control | T/C [4]: 97 % of control

[Cl][Mn][Cl]
T/C (dose: 37.5 mg/kg/injection, schedule: Q04DX003 (sc), vehicle: saline): 115 % of control | T/C (dose: 75.0 mg/kg/injection, schedule: Q04DX003 (sc), vehicle: saline): 109 % of control | T/C [9]: 104 % of control

COC(=O)c1ccoc1
T/C [9]: 123 % of control | T/C [1]: 89 % of control | T/C [2]: 66 % of control

COc1cccc2c1C(=O)c1c(O)c3c(c(O)c1C2=O)C[C@@](O)(/C(C)=N/NC(=O)c1ccc(Cl)cc1)C[C@@H]3OC1CC(N)C(O)C(C)O1 (stereo partly drawn)
T/C (dose: 1.0 mg/kg/injection, schedule: Q01DX010 (sc), vehicle: water): 58 % of control | T/C (dose: 4.0 mg/kg/injection, schedule: Q01DX010 (sc), vehicle: water): 84 % of control and 109 % of control | T/C (dose: 16.0 mg/kg/injection, schedule: Q01DX010 (sc), vehicle: water): 49 % of control

O=C1NC(=O)/C(=C/C=C/c2ccccc2)S1
T/C [10]: 111 % of control | T/C [11]: 98 % of control | T/C [12]: 84 % of control | T/C [13]: 66 % of control

CCC(=O)Sc1ccccc1C(=O)Nc1ccc(Cl)cc1
T/C [10]: 63 % of control | T/C [11]: 75 % of control | T/C [12]: 58 % of control | T/C [13]: 69 % of control

O=CC(O)C(O)C(O)C(O)C(=O)O.[NH-]C1CCCCC1[NH-].[Pt+2] (stereo not drawn)
T/C (dose: 9.38 mg/kg/injection, schedule: Q04DX003 (sc), vehicle: suspension in saline): 48 % of control | T/C (dose: 18.75 mg/kg/injection, schedule: Q04DX003 (sc), vehicle: suspension in saline): 28 % of control

O=c1n[n+]([O-])ccn1C1OC(CO)C(O)C1O (stereo not drawn)
T/C (dose: 100.0 mg/kg/injection, schedule: Q01DX010 (sc), vehicle: suspension in saline): 56 % of control | T/C (dose: 200.0 mg/kg/injection, schedule: Q01DX010 (sc), vehicle: suspension in saline): 91 % of control | T/C (dose: 400.0 mg/kg/injection, schedule: Q01DX010 (sc), vehicle: suspension in saline): 86 % of control

CCCCNC(C)C1(O)Cc2c(O)c3c(c(O)c2C(OC2CC(N)C(O)C(C)O2)C1)C(=O)c1c(OC)cccc1C3=O (stereo not drawn)
T/C (dose: 100.0 mg/kg/injection, schedule: Q01DX010 (sc), vehicle: water): 115 % of control | T/C [5]: 75 % of control

C[CH2][Sn]([CH2]C)([O]S(C)(=O)=O)[O]S(C)(=O)=O
T/C (dose: 6.25 mg/kg/injection, schedule: Q04DX003 (sc), vehicle: saline with Tween-80): 83 % of control | T/C (dose: 12.5 mg/kg/injection, schedule: Q04DX003 (sc), vehicle: saline with Tween-80): 95 % of control | T/C (dose: 25.0 mg/kg/injection, schedule: Q04DX003 (sc), vehicle: saline with Tween-80): 95 % of control

CCCCCCCCCCCCCCC/C([O-])=N/[N+](C)(C)CC(C)O (stereo not drawn)
T/C (dose: 200.0 mg/kg/injection, schedule: Q04DX003 (sc), vehicle: Klucel (hydroxypropylcellulose) (HPC)): 95 % of control | T/C (dose: 800.0 mg/kg/injection, schedule: Q04DX003 (sc), vehicle: Klucel (hydroxypropylcellulose) (HPC)): 100 % of control | T/C (dose: 1600.0 mg/kg/injection, schedule: Q04DX003 (sc), vehicle: Klucel (hydroxypropylcellulose) (HPC)): 91 % of control | T/C [8]: 63 % of control

OCCO
T/C (dose: 8.0 % in 0.5 ml injection vol, schedule: Q04DX003 (sc), vehicle: water): 69 % of control | T/C (dose: 16.0 % in 0.5 ml injection vol, schedule: Q04DX003 (sc), vehicle: water): 87 % of control

CC(=O)O[C@@H]1[C@@H](O)C2=C3[C@]4(C)[C@@H]1C(C)(C)C(=O)C[C@@H]4[C@]3(O)[C@H](OC(C)=O)[C@@]1(C[C@@H]1C)C2=O
T/C (dose: 12.5 mg/kg/injection, schedule: Q01DX010 (sc), vehicle: saline with Tween-80): 106 % of control | T/C (dose: 25.0 mg/kg/injection, schedule: Q01DX010 (sc), vehicle: saline with Tween-80): 114 % of control | T/C (dose: 50.0 mg/kg/injection, schedule: Q01DX010 (sc), vehicle: saline with Tween-80): 319 % of control

COc1cc2cc(c1Cl)N(C)C(=O)CC(OC(=O)CC(C)C)C1(C)OC1C(C)C1CC(O)(NC(=O)O1)C(OC)/C=C/C=C(C)C2 (stereo not drawn)
T/C (dose: 25.0 micrograms/kg/injection, schedule: Q01DX010 (sc), vehicle: saline + alcohol): -12 % of control | T/C (dose: 100.0 micrograms/kg/injection, schedule: Q01DX010 (sc), vehicle: saline + alcohol): -54 % of control
